The values below come from ChEMBL document CHEMBL5465560, “Selectivity Literature for EUbOPEN Chemogenomic Library” (2024).

The target of test [1] is Dual specificity tyrosine-phosphorylation-regulated kinase 1B (Homo sapiens, UniProt Q9Y463). Kind of test: Selectivity interaction (Kinase panel (Z-LYTE Assay)) EUB0001632a DYRK1B. The conditions noted are these: at 10 µM.
Test [2] deals with Phosphatidylinositol 4-kinase beta (Homo sapiens, UniProt Q9UBF8). The experiment in a line: Selectivity interaction (ActivX KiNativ screen (ex vivo kinase selectivity in human PBMCs)) EUB0001619a PI4KB. The conditions noted are these: PBMC, at 1 µM. It counts as cell-based.
For test [3], the target named is T1, Ankyrin repeat and protein kinase domain-containing protein 1 (Homo sapiens) (UniProt Q8NFD2).
T1 sequence (whole entry): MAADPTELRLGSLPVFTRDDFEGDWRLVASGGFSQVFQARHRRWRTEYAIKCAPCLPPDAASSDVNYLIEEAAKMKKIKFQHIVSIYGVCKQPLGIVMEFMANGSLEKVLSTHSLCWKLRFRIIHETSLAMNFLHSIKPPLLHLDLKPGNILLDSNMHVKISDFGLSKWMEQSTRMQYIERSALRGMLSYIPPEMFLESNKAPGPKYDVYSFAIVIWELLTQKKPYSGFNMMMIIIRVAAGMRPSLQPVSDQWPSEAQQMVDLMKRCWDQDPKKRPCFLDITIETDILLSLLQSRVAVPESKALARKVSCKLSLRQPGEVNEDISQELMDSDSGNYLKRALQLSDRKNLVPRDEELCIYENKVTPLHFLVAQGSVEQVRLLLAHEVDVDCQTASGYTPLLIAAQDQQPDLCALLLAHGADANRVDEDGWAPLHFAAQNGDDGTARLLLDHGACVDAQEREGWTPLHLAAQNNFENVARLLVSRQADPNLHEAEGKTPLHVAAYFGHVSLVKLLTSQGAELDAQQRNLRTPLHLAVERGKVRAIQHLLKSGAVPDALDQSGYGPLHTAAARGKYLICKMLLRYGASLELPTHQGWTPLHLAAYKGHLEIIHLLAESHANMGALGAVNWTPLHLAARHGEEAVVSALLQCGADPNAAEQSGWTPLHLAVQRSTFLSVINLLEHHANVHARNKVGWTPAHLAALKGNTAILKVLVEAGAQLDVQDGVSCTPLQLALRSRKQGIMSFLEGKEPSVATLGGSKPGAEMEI
The conditions noted are these: at 10 µM.

The target in test [4] is Eukaryotic translation initiation factor 2-alpha kinase 1 (Homo sapiens) (UniProt Q9BQI3). The experiment in a line: Selectivity interaction (KinomeScan (DiscoverX)) EUB0000666a EIF2AK1. The following applies: at 10 µM.
Eukaryotic translation initiation factor 2-alpha kinase 1 (Homo sapiens), sequence (Q9BQI3 whole entry): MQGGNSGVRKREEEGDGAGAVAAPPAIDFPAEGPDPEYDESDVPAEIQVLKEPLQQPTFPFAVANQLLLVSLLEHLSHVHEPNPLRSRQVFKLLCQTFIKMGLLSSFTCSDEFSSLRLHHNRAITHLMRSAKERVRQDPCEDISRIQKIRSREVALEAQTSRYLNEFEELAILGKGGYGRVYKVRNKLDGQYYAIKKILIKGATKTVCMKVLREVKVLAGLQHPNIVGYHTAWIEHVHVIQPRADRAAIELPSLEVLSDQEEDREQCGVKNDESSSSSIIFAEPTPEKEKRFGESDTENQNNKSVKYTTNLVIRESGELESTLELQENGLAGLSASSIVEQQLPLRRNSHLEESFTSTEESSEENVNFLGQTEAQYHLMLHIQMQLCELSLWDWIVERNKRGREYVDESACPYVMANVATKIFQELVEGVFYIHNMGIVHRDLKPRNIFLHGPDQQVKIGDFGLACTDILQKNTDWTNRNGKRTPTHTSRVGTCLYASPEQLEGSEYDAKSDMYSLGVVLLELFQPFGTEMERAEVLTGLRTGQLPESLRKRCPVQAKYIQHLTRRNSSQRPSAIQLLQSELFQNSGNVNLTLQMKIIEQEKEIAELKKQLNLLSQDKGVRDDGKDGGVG
In test [5] the target is Macrophage colony-stimulating factor 1 receptor (Homo sapiens) (UniProt P07333). The experiment in a line: Selectivity interaction (KinomeScan (DiscoverX)) EUB0000607a CSF1R. The following applies: at 10 µM.
The target in test [6] is Calcium/calmodulin-dependent protein kinase type 1G (Homo sapiens) (UniProt Q96NX5). The conditions noted are these: at 10 µM.
Calcium/calmodulin-dependent protein kinase type 1G (Homo sapiens), sequence (Q96NX5 whole entry): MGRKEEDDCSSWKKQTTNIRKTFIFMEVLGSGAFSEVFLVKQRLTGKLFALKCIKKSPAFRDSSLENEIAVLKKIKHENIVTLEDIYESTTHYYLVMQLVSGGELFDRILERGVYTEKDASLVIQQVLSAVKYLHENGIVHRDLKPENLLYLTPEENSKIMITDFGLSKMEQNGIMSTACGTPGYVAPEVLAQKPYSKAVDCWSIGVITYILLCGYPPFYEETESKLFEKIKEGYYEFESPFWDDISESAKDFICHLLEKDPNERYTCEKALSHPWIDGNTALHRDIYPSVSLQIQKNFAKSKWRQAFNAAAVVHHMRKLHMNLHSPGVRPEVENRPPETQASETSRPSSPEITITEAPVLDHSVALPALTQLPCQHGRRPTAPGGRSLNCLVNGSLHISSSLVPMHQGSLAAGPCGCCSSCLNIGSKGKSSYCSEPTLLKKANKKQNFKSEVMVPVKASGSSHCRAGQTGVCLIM
Test [7] deals with Serine/threonine-protein kinase N2 (Homo sapiens, UniProt Q16513). Kind of test: Selectivity interaction (Kinase screening (Upstate/Millipore)) EUB0000604a PKN2.
Test [8] addresses Protein kinase C gamma type (Homo sapiens) (UniProt P05129). The experiment in a line: Selectivity interaction (Kinase screening (Upstate/Millipore)) EUB0000604a PRKCG.
Test [9] has as its target Serine/threonine-protein kinase tousled-like 2 (Homo sapiens) (UniProt Q86UE8). Kind of test: Selectivity interaction (ActivX KiNativ screen (kinase selectivity in THP-1 cell lysates)) EUB0000639a TLK2. The following applies: lysate, at 1 µM. Type of test: subcellular.
Test [10] concerns Epidermal growth factor receptor (Homo sapiens), P00533 [L861Q]. The experiment in a line: (§1) Selectivity interaction (ProQinase) EUB0000171b EGFR.
Epidermal growth factor receptor (Homo sapiens), P00533 [L861Q], sequence (P00533 whole entry L861Q): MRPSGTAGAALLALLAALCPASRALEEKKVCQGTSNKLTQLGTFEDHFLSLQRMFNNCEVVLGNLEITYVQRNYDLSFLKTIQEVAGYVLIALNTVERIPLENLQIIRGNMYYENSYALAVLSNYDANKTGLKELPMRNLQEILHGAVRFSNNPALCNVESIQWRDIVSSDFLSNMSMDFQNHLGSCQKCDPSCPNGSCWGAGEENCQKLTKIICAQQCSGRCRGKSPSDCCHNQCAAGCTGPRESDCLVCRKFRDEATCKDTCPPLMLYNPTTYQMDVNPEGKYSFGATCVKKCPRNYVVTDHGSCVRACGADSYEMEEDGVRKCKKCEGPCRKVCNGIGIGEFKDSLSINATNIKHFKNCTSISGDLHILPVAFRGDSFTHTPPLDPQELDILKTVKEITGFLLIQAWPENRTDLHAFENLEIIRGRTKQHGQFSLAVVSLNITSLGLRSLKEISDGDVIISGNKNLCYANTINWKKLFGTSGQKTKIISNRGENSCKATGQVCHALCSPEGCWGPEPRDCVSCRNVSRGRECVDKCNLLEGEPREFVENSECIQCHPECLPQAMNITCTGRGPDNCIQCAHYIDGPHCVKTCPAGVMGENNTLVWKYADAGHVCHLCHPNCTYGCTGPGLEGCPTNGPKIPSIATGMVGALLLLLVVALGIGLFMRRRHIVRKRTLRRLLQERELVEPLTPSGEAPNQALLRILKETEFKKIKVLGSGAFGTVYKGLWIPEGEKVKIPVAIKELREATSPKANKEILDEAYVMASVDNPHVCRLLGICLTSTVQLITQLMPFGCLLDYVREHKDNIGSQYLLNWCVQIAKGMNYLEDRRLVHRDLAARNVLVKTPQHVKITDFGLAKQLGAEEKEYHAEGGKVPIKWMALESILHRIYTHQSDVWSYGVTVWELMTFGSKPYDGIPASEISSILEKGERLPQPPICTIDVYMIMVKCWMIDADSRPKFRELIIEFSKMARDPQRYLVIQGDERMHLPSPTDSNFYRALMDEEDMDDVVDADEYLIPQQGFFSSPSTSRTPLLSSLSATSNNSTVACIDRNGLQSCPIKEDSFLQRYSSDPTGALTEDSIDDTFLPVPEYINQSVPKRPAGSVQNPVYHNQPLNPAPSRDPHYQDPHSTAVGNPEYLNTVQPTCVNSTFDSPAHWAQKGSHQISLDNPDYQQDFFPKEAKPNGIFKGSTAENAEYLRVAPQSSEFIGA
Test [11] concerns Epidermal growth factor receptor (Homo sapiens), P00533 [UNDEFINED MUTATION]. The test is described as §1.
Epidermal growth factor receptor (Homo sapiens), P00533 [UNDEFINED MUTATION], sequence (P00533 whole entry, looked up, change not shown): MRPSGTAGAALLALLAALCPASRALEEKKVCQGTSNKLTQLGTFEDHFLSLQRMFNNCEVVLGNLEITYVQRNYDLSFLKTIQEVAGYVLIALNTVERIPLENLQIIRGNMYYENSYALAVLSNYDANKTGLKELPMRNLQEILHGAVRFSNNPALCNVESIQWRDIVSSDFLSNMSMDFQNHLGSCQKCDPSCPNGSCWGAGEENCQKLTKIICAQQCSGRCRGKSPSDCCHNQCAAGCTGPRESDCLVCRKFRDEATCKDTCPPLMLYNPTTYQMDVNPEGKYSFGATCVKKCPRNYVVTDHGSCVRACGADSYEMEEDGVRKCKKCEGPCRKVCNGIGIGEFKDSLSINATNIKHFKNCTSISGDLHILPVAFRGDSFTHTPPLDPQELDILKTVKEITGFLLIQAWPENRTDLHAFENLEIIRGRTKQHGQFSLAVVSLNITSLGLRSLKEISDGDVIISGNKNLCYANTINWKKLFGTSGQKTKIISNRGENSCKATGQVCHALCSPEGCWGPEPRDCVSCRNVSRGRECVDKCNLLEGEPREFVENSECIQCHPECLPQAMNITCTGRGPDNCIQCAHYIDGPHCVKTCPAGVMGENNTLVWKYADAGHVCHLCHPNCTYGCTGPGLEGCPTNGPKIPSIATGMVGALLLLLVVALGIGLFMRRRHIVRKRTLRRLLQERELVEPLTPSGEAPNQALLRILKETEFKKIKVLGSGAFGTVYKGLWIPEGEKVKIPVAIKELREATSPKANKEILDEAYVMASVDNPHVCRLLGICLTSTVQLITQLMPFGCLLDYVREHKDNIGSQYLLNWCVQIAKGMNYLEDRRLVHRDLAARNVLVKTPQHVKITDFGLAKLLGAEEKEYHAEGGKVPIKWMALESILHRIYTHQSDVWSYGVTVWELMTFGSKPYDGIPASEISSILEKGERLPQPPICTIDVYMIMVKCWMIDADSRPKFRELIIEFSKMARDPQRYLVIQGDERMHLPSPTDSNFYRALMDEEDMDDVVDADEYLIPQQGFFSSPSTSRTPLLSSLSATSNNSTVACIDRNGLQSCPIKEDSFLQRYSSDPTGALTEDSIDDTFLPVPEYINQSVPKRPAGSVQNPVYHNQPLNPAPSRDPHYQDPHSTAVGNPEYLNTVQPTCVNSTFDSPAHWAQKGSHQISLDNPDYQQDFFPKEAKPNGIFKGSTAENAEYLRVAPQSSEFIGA
For test [12], the target named is T2, Tyrosine-protein kinase JAK3 (Homo sapiens) (UniProt P52333).
T2 sequence (whole entry): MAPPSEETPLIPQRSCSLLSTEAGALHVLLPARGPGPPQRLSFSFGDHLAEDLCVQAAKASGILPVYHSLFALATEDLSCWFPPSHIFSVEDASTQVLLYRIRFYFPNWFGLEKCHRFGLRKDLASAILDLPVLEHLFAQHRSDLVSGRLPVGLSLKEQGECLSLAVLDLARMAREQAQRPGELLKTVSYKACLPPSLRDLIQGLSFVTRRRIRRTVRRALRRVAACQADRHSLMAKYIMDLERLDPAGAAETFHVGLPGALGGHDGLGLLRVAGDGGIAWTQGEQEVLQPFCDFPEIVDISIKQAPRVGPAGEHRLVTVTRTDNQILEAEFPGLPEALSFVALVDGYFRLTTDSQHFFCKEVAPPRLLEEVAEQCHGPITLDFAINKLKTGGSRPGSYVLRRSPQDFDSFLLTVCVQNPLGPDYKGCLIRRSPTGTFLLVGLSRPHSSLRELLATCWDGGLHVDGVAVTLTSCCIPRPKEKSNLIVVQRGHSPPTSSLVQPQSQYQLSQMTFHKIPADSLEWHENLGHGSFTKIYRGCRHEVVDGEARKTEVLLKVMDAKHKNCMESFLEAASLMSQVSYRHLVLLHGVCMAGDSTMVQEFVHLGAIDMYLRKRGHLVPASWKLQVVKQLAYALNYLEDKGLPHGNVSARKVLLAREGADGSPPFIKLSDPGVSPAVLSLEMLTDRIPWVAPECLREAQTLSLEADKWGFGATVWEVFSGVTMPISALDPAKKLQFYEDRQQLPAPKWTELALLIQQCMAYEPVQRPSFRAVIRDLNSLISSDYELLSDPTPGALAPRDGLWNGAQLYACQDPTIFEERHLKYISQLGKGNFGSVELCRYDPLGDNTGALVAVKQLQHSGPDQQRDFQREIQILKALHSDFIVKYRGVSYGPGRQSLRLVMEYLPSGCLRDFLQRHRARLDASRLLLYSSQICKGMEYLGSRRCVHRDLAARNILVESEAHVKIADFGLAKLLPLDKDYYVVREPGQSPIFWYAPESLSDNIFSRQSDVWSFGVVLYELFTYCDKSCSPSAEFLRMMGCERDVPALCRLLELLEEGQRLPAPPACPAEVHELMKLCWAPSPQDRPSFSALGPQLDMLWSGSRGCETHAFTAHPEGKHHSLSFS
Kind of test: Selectivity interaction (KinomeScan (DiscoverX)) EUB0000655a JAK3. The following applies: at 10 µM.

Serine/threonine-protein kinase tousled-like 2 (Homo sapiens), sequence (Q86UE8 whole entry, looked up): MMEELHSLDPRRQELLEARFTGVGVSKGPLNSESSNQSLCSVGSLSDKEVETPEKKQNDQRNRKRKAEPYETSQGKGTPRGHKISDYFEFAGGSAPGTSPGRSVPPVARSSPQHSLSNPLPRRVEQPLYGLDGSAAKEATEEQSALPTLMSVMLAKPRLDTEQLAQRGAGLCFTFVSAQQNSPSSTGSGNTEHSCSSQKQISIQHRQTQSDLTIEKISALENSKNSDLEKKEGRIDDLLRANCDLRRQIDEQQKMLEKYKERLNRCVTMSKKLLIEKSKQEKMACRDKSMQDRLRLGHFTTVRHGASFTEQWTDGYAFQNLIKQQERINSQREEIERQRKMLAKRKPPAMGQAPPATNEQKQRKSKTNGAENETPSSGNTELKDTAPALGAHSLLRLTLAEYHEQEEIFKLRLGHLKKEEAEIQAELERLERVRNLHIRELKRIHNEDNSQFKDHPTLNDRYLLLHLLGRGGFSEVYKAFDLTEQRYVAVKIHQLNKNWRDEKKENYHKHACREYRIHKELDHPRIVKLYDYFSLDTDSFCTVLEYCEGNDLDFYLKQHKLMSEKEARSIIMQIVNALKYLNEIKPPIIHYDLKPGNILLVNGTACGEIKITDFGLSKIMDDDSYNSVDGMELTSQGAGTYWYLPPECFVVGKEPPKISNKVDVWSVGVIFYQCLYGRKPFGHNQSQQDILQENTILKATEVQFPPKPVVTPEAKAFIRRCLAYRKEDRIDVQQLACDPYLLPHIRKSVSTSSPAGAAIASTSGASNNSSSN
Dual specificity tyrosine-phosphorylation-regulated kinase 1B, sequence (Q9Y463 whole entry, looked up): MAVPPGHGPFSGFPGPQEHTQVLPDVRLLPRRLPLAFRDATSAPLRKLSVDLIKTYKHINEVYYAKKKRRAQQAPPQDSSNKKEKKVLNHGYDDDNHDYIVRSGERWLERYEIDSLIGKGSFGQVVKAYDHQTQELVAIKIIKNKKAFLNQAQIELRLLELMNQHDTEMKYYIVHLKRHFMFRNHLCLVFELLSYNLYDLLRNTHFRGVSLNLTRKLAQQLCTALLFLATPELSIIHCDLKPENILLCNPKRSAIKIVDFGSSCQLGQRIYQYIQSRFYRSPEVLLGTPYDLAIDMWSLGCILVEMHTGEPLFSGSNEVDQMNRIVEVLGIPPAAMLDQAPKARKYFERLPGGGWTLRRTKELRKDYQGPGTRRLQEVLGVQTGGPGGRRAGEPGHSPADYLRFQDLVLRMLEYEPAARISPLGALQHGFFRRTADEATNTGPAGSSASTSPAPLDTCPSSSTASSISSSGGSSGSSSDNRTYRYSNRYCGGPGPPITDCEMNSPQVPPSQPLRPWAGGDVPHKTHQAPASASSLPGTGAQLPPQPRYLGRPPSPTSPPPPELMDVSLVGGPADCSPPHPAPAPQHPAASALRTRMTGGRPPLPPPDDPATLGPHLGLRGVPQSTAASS

As to `Cn1cc(-n2cnc3c(NCc4nc5cc(Cl)c(Cl)cc5[nH]4)nc(N4CCOCC4)nc32)cn1`, in [1], the % of control came out at 3.54%.

For `N#Cc1cccc(-c2c[nH]c3ncnc(N4CCOCC4)c23)c1`, the % of inhibition in [2] is 5%.

As to `CCN(CC)CCCCNc1ncc2cc(-c3cc(OC)cc(OC)c3)c(NC(=O)NC(C)(C)C)nc2n1`, the % of control in test [3] is 100%.

Turning to `O=C(NOC[C@H](O)CO)c1ccc(F)c(F)c1Nc1ccc(I)cc1F`, the % of control in test [4] is 100%.

With `CNC(=O)Nc1ccc(-c2nc(N3CC4CCC(C3)O4)c3cnn(C4CCC5(CC4)OCCO5)c3n2)cc1`, in test [5], the % of control worked out at 100%.

For the compound `Cc1cc([C@@H](C)Nc2ccccc2C(=O)O)c2nc(N3CCOCC3)cc(=O)n2c1` [AZD-6482], the % of control in [6] came to 91%.

As for `Cc1cnc(Nc2ccc(F)cc2Cl)nc1-c1c[nH]c(C(=O)N[C@H](CO)c2cccc(Cl)c2)c1`, the % of inhibition in test [7] came out at 14%; in test [8], 11%.

As for `CC[C@@H]1[C@H](F)C(=O)N[C@@H]1COc1nccc2cc(C(N)=O)c(OC)cc12` [ZIMLOVISERTIB], in test [9], the % of inhibition came out at 43.3%.

As to `C=CC(=O)Nc1cccc(C(=O)Nc2ccc(Nc3cc(-c4[nH]c(SC)nc4C)ccn3)cc2)c1`, the % of control in [10] (at 1 µM) turned out to be 104%; in test [10] (at 5 µM) it was 91%; in test [11] (at 1 µM), 115%; in test [11] (at 5 µM), 88%.

As for `CN(C)CCOc1ccc(-c2nc(-c3ccncc3)c(-c3ccc4c(c3)CC/C4=N\O)[nH]2)cc1`, the % of control in test [12] is 93%.
